# Data reported in US20240139190A1, “NOVEL ANTIPARASITIC COMPOUNDS AND METHODS” (The Board of Regents of The University of Texas System, priority 2019, published 2024).
# Key:
# [1] = molecular target: purified L. tarentolae tubulin (Leishmania tarentolae, UniProt A0A640KCM0+A0A640KQN0); experiment: Tubulin polymerization turbidity assay, Leishmania tubulin; format: biochemical
# Protocol: L. tarentolae (Parrot strain from ATCC) tubulin was purified. Briefly, promastigotes of L. tarentolae were grown to a high density (˜1×10^8 cells/mL), harvested, and resuspended in PME+P buffer containing 100 mM piperazine N, N′-bis (2-ethanesulfonic acid) (PIPES) buffer (pH 6.9), 1 mM glycol ether diamine tetraacetic acid (EGTA), 1 mM MgCl2, 1 mM benzamidine, 0.5 mM phenylmethylsulfonyl fluoride, 25 μg/ml leupeptin. The resulting suspension was extensively sonicated on ice with a probe sonicator (Misonix), cooled on ice for 30 minutes and centrifuged at 40,000×g for 1 hour at 4° C. using an ultracentrifuge (Beckman, Fullerton, CA). The resulting supernatant was filtered through a glass wool or 0.45-micron filter before loading into an equilibrated DEAE-Sepharose Fast Flow matrix (Amersham Biosciences). The column was washed with two column volumes of PME+P and subsequently four column volumes PME+P containing 0.1 M KCl and 0.25 M glutamate (pH 6.9). Tubulin was eluted with two column volumes PME+P containing 0.3 M KCl and 0.75 M glutamate (pH 6.9), and tubulin-rich fractions were confirmed by tubulin polymerization assays. The assembly-competent tubulin was pooled together and diluted into 1×PME buffer, 2 mM GTP, 10 mM MgCl2 and 8% DMSO (v/v). Tubulin was incubated in this buffer for 45 minutes at 30° C. to promote assembly, centrifuged at 50,000×g at 30° C. for 30 min, and re-suspended in 1 mL of ice-cold PME. […] Purity was assessed by SDS-PAGE and Coomassie Blue.
# Tubulin polymerization assays were performed in 96-well half-area microplates (Costar) in a final volume of 100 μL. […] The absorbance at 340 nm was recorded in a Synergy H1 microplate reader (BioTek) for up to 45 min at 37° C. […]
# To determine whether MMV676477 directly regulates microtubule assembly, assembly-competent tubulin from Leishmania tarentolae was purified and analyzed (FIG. 5A). […] 3 mg/mL purified L. tarentolae tubulin (3 mg/mL) was treated with serial dilutions of MMV676477 while the absorbance was measured at 340 nm over time.
# purified porcine tubulin [2] = molecular target: T1, purified porcine tubulin (Sus scrofa, UniProt P02550+P02554); experiment: Fluorescent microtubule assembly assay; format: biochemical; conditions: mammalian tubulin, fluorescence micrographs
# T1 construct: purchased Cytoskeleton, Inc. T240
# Protocol: (§1) To determine the selectivity of MMV676477, purified porcine tubulin was exposed to a serial dilution of the drug (0 to 25 μM) and absorbance was measured at 340 nm over time. […] To ensure that the absorbance seen at 340 nm reflected microtubule formation and not precipitation, a fluorescent microtubule assembly assay was employed.
# [3] = system: L. amazonensis promastigotes and amastigotes; experiment: Tubulin intensity by confocal immunofluorescence microscopy; format: cell-based, Leishmania amazonensis; conditions: 24 h at EC50^72 h
# Protocol: Promastigotes or amastigotes were treated with the indicated compound concentrations and allowed to adhere to poly-L-lysine coated plates. All cells were fixed with 4% paraformaldehyde and permeabilized/blocked with 0.01% Triton X-100 and 2% BSA in PBS. Promastigotes and amastigotes were incubated with mouse anti-gp46 or anti-p8, respectively at 1:50 or 1:1000 and rat anti-alpha-tubulin antibody at 1:1000. Samples were then probed with A568 anti-mouse and […] secondary antibodies (Molecular Probes). DNA was labeled with Hoescht. Samples were visualized on a Zeiss LSM 880 Inverted confocal Airyscan microscope at 63×; full Z-thicknesses through parasites were obtained. […] For microscopic analysis of mitotic arrest, at least 200 parasites were analyzed per condition per experiment after 48 hrs incubation at compounds' EC50, and the average plus standard error for three experiments was calculated. Representative images were selected from the maximal intensity projections and linearly processed in Adobe Photoshop CS6.
# (§2) One reason why MMV676477 might affect parasite cell division is that, like paclitaxel, it might affect microtubule polymerization, either directly or indirectly. The degree to which MMV676477 affected microtubules polymerization in cells was examined. […] Centrifugation of these extracts allowed separation of insoluble polymeric (pellet) and soluble dimeric (supernatant) tubulin. […] The intensity of α-tubulin staining was examined by normalizing it to the intensity of a membrane protein (gp46 for promastigotes in FIG. 4D; p8 for amastigotes in FIG. 4E).
# purified porcine tubulin [4] = molecular target: T1, purified porcine tubulin; experiment: Tubulin polymerization turbidity assay, mammalian tubulin; format: biochemical
# Protocol: Tubulin polymerization assays were performed in 96-well half-area microplates (Costar) in a final volume of 100 μL. Briefly, Leishmanial or porcine tubulin (>99% pure, Cat. #T240, Cytoskeleton, Inc.) in 50 μL volume was pre-treated with drugs on ice for 5 minutes before adding 50 μL ice cold buffer, to provide a final concentration of 3 mg/ml tubulin in 80 mM PIPES pH 6.9, 2 mM MgCl2, 0.5 mM EGTA, 1 mM GTP, and 1% DMSO unless specified otherwise. The absorbance at 340 nm was recorded in a Synergy H1 microplate reader (BioTek) for up to 45 min at 37° C. (porcine tubulin) or 30° C. (L. tarentolae tubulin).
# as §1
# [5] = system: cellular tubulin of L. amazonensis; experiment: Polymerized vs. unpolymerized tubulin in parasites (differential centrifugation, western blot); format: cell-based, Leishmania amazonensis; conditions: 24 h at EC50^72 h, densitometry
# Excerpt: as §2
# [6] = system: L. amazonensis axenic amastigotes; experiment: alamarBlue viability / concentration-response assay, axenic amastigotes; format: cell-based, Leishmania amazonensis; conditions: Leishmania amazonensis, 72 h, L. amazonensis, stage not stated; read-out: EC50^72 h for La
# Protocol: Leishmania amazonensis axenic amastigotes (100 μL, 2×10^6 cells/mL) were added to 96-multiwell plates containing 100 μL of amastigote culture medium with an appropriate compound dilution series. 0.1% DMSO (no drug) served as a positive control (100%), and 5 μM amphotericin B served as a negative growth control (0%). Only internal wells were used to minimize edge effects from evaporation. Axenic amastigotes were incubated at 32° C. with a compound/drug for 72 h prior to measurement. Similarly, the cytotoxicity of each compound was determined against RAW 264.7 cells and HepG2 cell lines, following 72 h incubation at 37° C. (promastigotes at 26° C.).
# 10% alamarBlue® (Thermo Fisher Scientific) was used to measure the growth of both parasite and mammalian cells. Conversion from a blue oxidized state to a pink reduced state was assessed visually at 6 hr. The fluorescence signal was measured with a BioTek Synergy H1 plate reader (530 nm excitation, 570 nm emission). For bioluminescence assays using L. amazonensisluc, relative luminescence units (RLU) were measured using Britelite Plus (PerkinElmer, USA). Luminescence produced by this luciferase reaction is proportional to the amount of luciferase-expressing, viable L. amazonensisluc. Following five-minute incubation at room temperature, the luminescence was measured with a BioTek Synergy H1 plate reader.
# All experiments were conducted as three technical triplicates on the same plate, with at least three independent biological repeats of each plate performed. For all assays, percent growth was expressed as a proportion of the untreated (positive) control (i.e. 100%) and plotted against drug/compound concentration. The concentration was then log10 transformed and EC50 values were determined using nonlinear regression (sigmoidal dose-response/variable slope equation) in GraphPad Prism v5.0 (GraphPad Software, Inc., San Diego, CA).
# To identify antileishmanial compounds, a microplate-based alamarBlue® assay was used to quickly triage the 400 drug-like compounds available in the MMV Pathogen Box collection. […] A three-step process was used to screen the Pathogen Box: 1) identify hits against axenic amastigotes, 2) confirm the inhibitory concentrations of these hits against axenic amastigotes, 3) evaluate hits for potency against intracellular parasites using fluorescence and bioluminescence-based intracellular assays. The MMV Pathogen Box resource was tested at two concentrations (5 μM and 1 μM, 72 h endpoint) on axenic amastigotes.
# Hits were defined as compounds that, at a concentration of 1 μM, decreased the relative fluorescence intensity signal to ≤70% of that produced by parasites incubated in vehicle (0.06% DMSO) only (FIG. 9).
smiles,measurement,setting,value
CC(=O)O[C@H]1C(=O)[C@@]2(C)[C@H]([C@H](OC(=O)c3ccccc3)[C@]3(O)C[C@H](OC(=O)[C@H](O)[C@@H](NC(=O)c4ccccc4)c4ccccc4)C(C)=C1C3(C)C)[C@]1(OC(C)=O)CO[C@@H]1C[C@@H]2O [paclitaxel],EC50,[1],1300 nM
same,microtubules formed vs control,purified porcine tubulin [2],many more microtubules were formed
same,tubulin intensity over control (DMSO-treated),[3],significant two-fold increase in tubulin intensity
same,EC50,"purified porcine tubulin [4]; 3 mg/ml tubulin, 1% DMSO, A340",1500 ± 200 nM
same,"Maximum absorbance (A340, 10% DMSO)",purified porcine tubulin [4]; mammalian tubulin,0.36
same,proportion of cellular polymeric tubulin,[5],significantly increased the proportion of cellular polymeric tubulin
same,EC50,[6],760 nM
